We go through ten molecules from patent US12583861B2, “Derivatives of imidazo[4,5-d]pyridazine, their preparation and their therapeutic application” (SANOFI, priority 2021, dated 2026).

One assay concerns the target T1, human TLR7 (Homo sapiens, UniProt Q9NYK1).
T1 construct: host or cells: HEK293 (HEK-Blue hTLR7)
T1 sequence (Q9NYK1 27-1049): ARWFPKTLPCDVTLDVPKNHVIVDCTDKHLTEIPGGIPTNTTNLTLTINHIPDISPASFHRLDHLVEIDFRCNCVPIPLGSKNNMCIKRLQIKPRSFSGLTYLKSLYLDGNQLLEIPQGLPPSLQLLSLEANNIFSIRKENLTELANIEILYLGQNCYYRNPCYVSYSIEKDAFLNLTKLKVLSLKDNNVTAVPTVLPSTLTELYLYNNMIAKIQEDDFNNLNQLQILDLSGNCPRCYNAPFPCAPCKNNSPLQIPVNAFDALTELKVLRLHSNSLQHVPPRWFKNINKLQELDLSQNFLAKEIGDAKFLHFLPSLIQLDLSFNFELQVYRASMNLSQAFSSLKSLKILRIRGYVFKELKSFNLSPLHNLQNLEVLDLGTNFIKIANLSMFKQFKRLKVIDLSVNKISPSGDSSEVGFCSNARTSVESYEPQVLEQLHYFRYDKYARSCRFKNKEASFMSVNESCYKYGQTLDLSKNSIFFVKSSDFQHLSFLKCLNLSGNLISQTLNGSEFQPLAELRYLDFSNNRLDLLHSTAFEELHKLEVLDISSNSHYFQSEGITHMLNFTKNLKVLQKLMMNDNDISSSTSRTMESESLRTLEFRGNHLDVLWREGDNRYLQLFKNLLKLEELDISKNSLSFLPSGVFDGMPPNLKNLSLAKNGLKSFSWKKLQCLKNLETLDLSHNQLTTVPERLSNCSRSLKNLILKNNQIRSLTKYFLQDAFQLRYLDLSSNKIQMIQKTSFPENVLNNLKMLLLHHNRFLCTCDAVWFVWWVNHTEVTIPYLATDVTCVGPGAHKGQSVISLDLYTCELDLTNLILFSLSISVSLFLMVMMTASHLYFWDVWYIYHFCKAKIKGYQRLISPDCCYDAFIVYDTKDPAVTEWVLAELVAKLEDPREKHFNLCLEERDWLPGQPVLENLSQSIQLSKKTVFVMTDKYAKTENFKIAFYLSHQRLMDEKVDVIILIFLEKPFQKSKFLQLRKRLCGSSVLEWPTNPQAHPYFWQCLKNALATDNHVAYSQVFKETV
In words: HEK-Blue hTLR7 reporter cell assay (SEAP, NF-kB/AP-1) for stimulation of human TLR7. The format is cell-based. The note with it: HEK-Blue hTLR7 cells, 24 h incubation, SEAP readout; read-out: TLR7_EC50. The procedure, abridged: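 HEK293 cells expressing hTLR7 with NF-κB/AP-1-driven SEAP reporter, seeded 3.10E4 cells/well, pre-incubated 18–24 h, then exposed to 3-fold compound dilutions (0.01–20 μM) for 24 h at 37 °C. Supernatant SEAP read with QUANTI-Blue; EC50 as concentration giving 50% activation.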

For another assay, the target named is T2, human TLR8 (Homo sapiens, UniProt Q9NR97).
T2 construct: host or cells: HEK293 (HEK-Blue hTLR8)
T2 sequence (Q9NR97 27-1041): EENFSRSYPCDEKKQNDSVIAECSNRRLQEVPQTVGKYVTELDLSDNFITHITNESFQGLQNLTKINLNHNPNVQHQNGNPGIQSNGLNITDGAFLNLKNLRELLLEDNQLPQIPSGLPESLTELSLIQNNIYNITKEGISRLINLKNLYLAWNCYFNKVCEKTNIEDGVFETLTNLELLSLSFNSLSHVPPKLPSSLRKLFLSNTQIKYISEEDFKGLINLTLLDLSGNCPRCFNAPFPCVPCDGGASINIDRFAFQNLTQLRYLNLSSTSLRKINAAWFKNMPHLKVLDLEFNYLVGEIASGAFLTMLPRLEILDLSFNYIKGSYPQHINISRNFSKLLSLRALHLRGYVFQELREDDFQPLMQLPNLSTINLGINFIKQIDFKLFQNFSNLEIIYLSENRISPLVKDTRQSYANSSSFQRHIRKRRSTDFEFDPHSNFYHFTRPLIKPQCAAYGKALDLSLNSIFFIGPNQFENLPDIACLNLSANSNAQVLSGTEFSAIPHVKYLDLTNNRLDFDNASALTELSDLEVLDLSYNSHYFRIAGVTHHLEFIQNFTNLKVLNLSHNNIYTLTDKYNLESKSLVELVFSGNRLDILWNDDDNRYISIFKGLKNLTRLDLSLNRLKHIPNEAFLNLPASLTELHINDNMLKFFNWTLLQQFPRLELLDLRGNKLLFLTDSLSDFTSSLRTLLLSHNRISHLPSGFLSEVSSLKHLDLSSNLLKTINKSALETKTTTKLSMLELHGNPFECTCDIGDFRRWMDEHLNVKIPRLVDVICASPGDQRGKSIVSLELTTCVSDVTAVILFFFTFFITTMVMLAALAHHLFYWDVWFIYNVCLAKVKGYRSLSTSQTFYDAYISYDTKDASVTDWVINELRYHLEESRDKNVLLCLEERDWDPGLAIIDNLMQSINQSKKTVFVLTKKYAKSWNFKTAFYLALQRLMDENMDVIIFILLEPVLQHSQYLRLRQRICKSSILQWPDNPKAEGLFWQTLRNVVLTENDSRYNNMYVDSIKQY
The assay can be described thus: HEK-Blue hTLR8 reporter cell assay (SEAP, NF-kB/AP-1) for stimulation of human TLR8. The format is cell-based. Particulars: HEK-Blue hTLR8 cells, 24 h incubation, SEAP readout; read-out: TLR8_EC50. The method in brief:
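HEK293 cells carrying hTLR8 and a SEAP reporter driven by NF-κB/AP-1 sites were seeded at 3.10E4 cells/well and held 18 to 24 h at 37° C., 5% CO2 before compound addition. Supernatant SEAP measured with QUANTI-Blue™.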

On to `CCCCc1nc2c(N)nnc(OC(C)C)c2n1Cc1ccc(CNC(=O)NCC)cc1` [Compound 113, 1-(4-((4-amino-2-butyl-7-isopropoxy-1H-imidazo[4,5-d]pyridazin-1-yl)methyl)benzyl)-3-ethylurea], for which the EC50 on human TLR7 is 120 nM; on human TLR8 it was more than 20000 nM.
The like results for `CCCCc1nc2c(N)nnc(OC(C)C)c2n1Cc1ccc(CNC(=O)OCc2ccc(NC(C)=O)cc2)cc1` [Compound 114, 4-acetamidobenzyl (4-((4-amino-2-butyl-7-isopropoxy-1H-imidazo[4,5-d]pyridazin-1-yl)methyl)benzyl)carbamate] were, in that order, 163 nM and more than 6340 nM.
For the molecule `CCCCc1nc2c(N)nnc(OC(C)C)c2n1Cc1ccc(CNS(C)(=O)=O)cc1` [Compound 115, N-(4-((4-amino-2-butyl-7-isopropoxy-1H-imidazo[4,5-d]pyridazin-1-yl)methyl)benzyl)methanesulfonamide], the EC50 at human TLR7 was 107 nM; at human TLR8, more than 16500 nM.
Take `CCCCc1nc2c(N)nnc(OC(C)C)c2n1Cc1ccc(CN(C)C)cc1` [Compound 116, 2-butyl-1-(4-((dimethylamino)methyl)benzyl)-7-isopropoxy-1H-imidazo[4,5-d]pyridazin-4-amine]: the EC50 on human TLR7 worked out at 34 nM; on human TLR8, 1820 nM.
Turning to `CCCCc1nc2c(N)nnc(OC(C)C)c2n1Cc1ccc(CNCC(=O)OC(C)(C)C)cc1` [Compound 117, tert-butyl (4-((4-amino-2-butyl-7-isopropoxy-1H-imidazo[4,5-d]pyridazin-1-yl)methyl)benzyl)glycinate], the values for the EC50 at human TLR7 and at human TLR8 were 190 nM and 8880 nM, respectively.
`CCCCc1nc2c(N)nnc(OC(C)C)c2n1Cc1ccc(CNC)cc1` [Compound 118, 2-butyl-7-isopropoxy-1-(4-((methylamino)methyl)benzyl)-1H-imidazo[4,5-d]pyridazin-4-amine]: the EC50 on human TLR7 is 11 nM; on human TLR8 it was 1490 nM.
As for `CCCCc1nc2c(N)nnc(OC(C)C)c2n1Cc1ccc(CNCCC(=O)OC(C)(C)C)cc1` [Compound 119, tert-butyl 3-((4-((4-amino-2-butyl-7-isopropoxy-1H-imidazo[4,5-d]pyridazin-1-yl)methyl)benzyl)amino)propanoate], the results for the EC50 on human TLR7 and at human TLR8 were 143 nM and 2130 nM, respectively.
As for `CCCCc1nc2c(N)nnc(OC(C)C)c2n1Cc1ccc(CNCCOCCOCCOC)cc1` [Compound 120, 1-(4-(5,8,11-trioxa-2-azadodecyl)benzyl)-2-butyl-7-isopropoxy-1H-imidazo[4,5-d]pyridazin-4-amine], the values for the EC50 on human TLR7 and at human TLR8 were 133 nM and 14400 nM, respectively.
On to `CCCCc1nc2c(N)nnc(OC(C)C)c2n1Cc1ccc(CNCCOCCOCCOCCOC)cc1` [Compound 121, 2-butyl-4-isopropoxy-3-[[4-[[2-[2-[2-(2-methoxyethoxy)ethoxy]ethoxy]ethylamino]methyl]phenyl]methyl]imidazo[4,5-d]pyridazin-7-amine], for which the EC50 on human TLR7 stood at 86 nM; at human TLR8, 15900 nM.
As for `CCCCc1nc2c(N)nnc(OC(C)C)c2n1Cc1ccc(CNCCOCCOCCOCCOCCOCCOCCOCCOC)cc1` [Compound 122, 2-butyl-4-isopropoxy-3-[[4-[[2-[2-[2-[2-[2-[2-[2-(2-methoxyethoxy)ethoxy]ethoxy]ethoxy]ethoxy]ethoxy]ethoxy]ethylamino]methyl]phenyl]methyl]imidazo[4,5-d]pyridazin-7-amine di2,2,2-trifluoroacetate], the values for the EC50 on human TLR7 and at human TLR8 were 729 nM and more than 20000 nM, respectively.
